Data as given in patent US8420638B2, “Triheterocyclic compounds and compositions thereof” (Gemin X Pharmaceuticals Canada Inc., priority 2003, dated 2013).
Structures can show the parent of a compound that is named as a salt.

Columns and labels:
[1] = Shelf stability (precipitation) of the formulated compound; assay type: physicochemical; settings: 0.6 mg/mL in 9.6% polyethylene glycol 300, 0.4% polysorbate 20 and 5% dextrose
Protocol: Compound 1 Tartrate salt solubility is equal to 0.1 mg/mL. […] This increase in solubility has a positive impact on the shelf stability of formulated Compound 1.

[2] = tested on: human prostatic adenocarcinoma cancer PC3 cells; assay: Growth of PC3 prostatic tumors in SCID mice; assay type: in vivo; settings: 5 consecutive intravenous injections; 4.84 μMoles/Kg (Compound 1 Mesylate Salt), 4.84 or 14.51 μMoles/Kg (Compound 66); FIG. 6
Protocol: The human prostatic adenocarcinoma cancer PC3 cells were purchased from the American Type Culture Collection (ATCC). These cells were confirmed to be free of mycoplasma infection. Cells were maintained in the Roswell Park Memorial Institute (RPMI), supplemented with 10% inactivated fetal bovine serum and 1% penicillin-streptomycin-L-Glutamine, under 5% carbon dioxide (CO2) at 37° C. For prostatic-tumor induction, cells were grown lower than 70% confluence in complete medium and then collected with trypsin (Bio Whittaker, Rockland, Me., USA). Cells were then centrifuged and washed 2 times in phosphate buffer solution (PBS) and resuspended in PBS at 1.5×10^6 cells/0.1 mL. PC3 cells were then transplanted subcutaneously into the flank of SCID mice (Charles River Laboratories, Wilmington, Mass., USA), as a suspension of tumor cells (1.5×10^6 cells in 100 μL PBS), under a laminar airflow hood. Eleven (11) days later, the size of each tumor was measured. […] Relative tumor size and volume was calculated as follows: length (cm)×[width (cm)]^2/2. […]

[3] = tested on: cancer cell lines H1299 and C33A; normal cell lines HMEC and MRC-5; assay: ATP levels in cancer versus normal cell lines (FIG. 1); assay type: cell-based; settings: 72 hours after treatment with 0.5 μM
Protocol: One day after plating, the cells were treated with various concentrations of Compound 1 Tartrate. Stock solutions of the Compound 1 Tartrate were prepared in dimethyl sulfoxide (Sigma-Aldrich Inc., St. Louis, Mo., USA), diluted in the recommended media and then added to the cells. The total dimethyl sulfoxide on the cells was 1%. […] The results were plotted relative to untreated control cells, which were set at a value of 100.

[4] = tested on: C33A human cervical cancer cells; assay: Growth of C33A cervical tumors in SCID mice; assay type: in vivo, CB17 SCID/SCID mice
Protocol: (§1) There were three treatment groups of ten mice each: (a) a negative control group, (b) a positive control group and (c) a group treated with Compound 1 Tartrate.
(§2) Treatments started on day fourteen after C33A cells transplantation. Compound 1 Tartrate was administered IV once daily for five consecutive days at a dose of 4.5 mg/kg. Compound 1 Tartrate was prepared fresh daily in a vehicle solution of 5% Dextrose (Abbot Laboratories, QC, Canada) and 2% polysorbate 20 (Sigma, St. Louis, Mo., USA). The negative control group was treated with vehicle alone. The injection volume for both Compound 1 Tartrate group and the negative control group was 150 μl.
(§3) Observation continued for 40 days after initial tumor implantation.

[5] = Body weight and deaths of tumor-bearing SCID mice under treatment; assay type: in vivo, CB17 SCID/SCID mice; settings: for change in body weight: 4.5 mg/kg IV once daily for five days, FIG. 2
Protocol: as §1, §2, §3

[6] = Solubility (0.2 μM filtration, LC/MS); assay type: physicochemical
Protocol: To determine whether a compound is soluble in a solution, the solution was filtered on 0.2 μM polytetrafluoroethylene filters (Whatman Inc. Clifton, N.J., USA) and the compound concentration in the filtrate was measured by LC/MS and compared to the expected concentration.
The column used was XTerra MS C18: 50×2.1 mm, 3.5 mm column at 20° C. Samples were injected and separated under the following conditions: The mobile phase “A” consisted of 5 mM ammonium formate, 0.1% formic acid in water and mobile phase “B” consisted of 5 mM ammonium formate, 0.1% formic acid in methanol. […] The Mass Spectrometer system consisted of a Waters ZQ2000 single quadrupole mass spectrometer (Waters, Milford, Mass., USA) equipped with an Electrospray Ionization Source (ES). The mass detector was operated in positive ion mode (ES+) and Selected Ion Recording mode (SIR). Compounds were detected at m/z equal to their respective molecular weight plus 1.

[7] = molecular target: T1, human placental alkaline phosphatase (Homo sapiens, UniProt P05187); assay: Conversion of phosphate pro-drug by human placental alkaline phosphatase in vitro; assay type: in vitro ADME; settings: 15 μM, 0.02 U/100 μL enzyme, pH 7.4, 30-120 minutes; FIG. 4
T1 construct: purchased Sigma-Aldrich Canada Ltd
Protocol: (§4) The conversion into biologically active drug of phosphate pro-drugs by calf intestinal alkaline phosphatase and human placental alkaline phosphatase was measured in vitro using purified enzymes. Purified calf intestinal alkaline phosphatase (Roche Diagnostic Inc. Laval, Quebec, Canada) or human placental alkaline phosphatase (Sigma-Aldrich Canada Ltd. Oakville, Ontario, Canada) was added at a concentration of 0.02 U/100 μL to a solution containing 15 μM of Compound 66, 20 mM Tris-HCl, pH 7.4 and 0.9% NaCl. The solutions were incubated for 30, 60 or 120 minutes. A solution containing 15 μM of Compound 66, 20 mM Tris-HCl, pH 7.4 and 0.9% NaCl was used as a reference (time=0 minutes). To each solution, an equal volume (100 μL) of ice-cold acetonitrile was added, and then the mixture was vortexed and transferred to glass vials. A standard concentration curve of the pro-drug and the drug was prepared in 10 mM Tris-HCl, pH 7.4, 0.45% NaCl and 50% acetonitrile. All samples were immediately analyzed by LC/MS.

[8] = tested on: calf intestinal alkaline phosphatase; assay: Conversion of phosphate pro-drug by calf intestinal alkaline phosphatase in vitro; assay type: in vitro ADME; settings: 15 μM, 0.02 U/100 μL enzyme, pH 7.4, 30-120 minutes; FIG. 5
Protocol: as §4

T1 sequence (P05187 23-506): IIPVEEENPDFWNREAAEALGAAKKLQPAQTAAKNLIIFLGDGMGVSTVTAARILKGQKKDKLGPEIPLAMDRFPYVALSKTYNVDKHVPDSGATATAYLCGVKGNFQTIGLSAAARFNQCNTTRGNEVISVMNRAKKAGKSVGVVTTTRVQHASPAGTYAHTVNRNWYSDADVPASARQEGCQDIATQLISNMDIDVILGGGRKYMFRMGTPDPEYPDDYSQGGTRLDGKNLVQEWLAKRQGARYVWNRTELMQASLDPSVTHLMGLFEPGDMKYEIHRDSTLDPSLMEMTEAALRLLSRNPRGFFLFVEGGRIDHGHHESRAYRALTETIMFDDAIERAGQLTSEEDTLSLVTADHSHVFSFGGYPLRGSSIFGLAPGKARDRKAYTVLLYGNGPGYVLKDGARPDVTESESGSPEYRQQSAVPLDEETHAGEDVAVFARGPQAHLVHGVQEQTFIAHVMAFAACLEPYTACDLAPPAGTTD

For `COC1=CC(c2cc3ccccc3[nH]2)=N/C1=C\c1[nH]c(C)cc1C` [Compound 1 Mesylate Salt], the “precipitation of the formulation” value [1] was “shows no evidence of precipitation 72 hours after its preparation” and the “growth of prostatic tumors” value [2] was “significantly reduce the growth of prostatic tumors in mice”.
With `COC1=CC(c2cc3ccccc3[nH]2)=N/C1=C\c1[nH]c(C)cc1C` [Compound 1 tartrate] the “effect on ATP levels in cancer cells versus normal cells” value [3] was “significantly more effective at lowering ATP levels in the cancer cell lines H1299 and C33A compared with the ATP levels in normal cell lines HMEC and MRC-5”, the “reduction in tumor growth compared to vehicle” value ([4]; 4.5 mg/kg IV once a day for five days, FIG. 3) was “statistically significant (p<0.0001) reduction in tumor growth” and the “average tumor size compared to vehicle” value ([4]; days 36 and 39, 4.5 mg/kg) was “significantly (p<0.001) smaller tumors on average”. The “change in body weight” value [5] was “no significant changes in body weight”, the “change in body weight” value ([5]; listed as Compound 1 Tartrate) was “non-significant weight loss” and the solubility ([6]; water (stated for Compound 66), filtrate of 0.2 μM filter by LC/MS, listed as Compound 1 Tartrate salt) was 100 µg/mL. The “precipitation of the formulation” value ([1]; listed as Compound 1 Tartrate Salt) was “tends to precipitate one hour after its preparation”.
In the case of `COC1=CC(c2cc3ccccc3[nH]2)=N/C1=C\c1[nH]c(C)cc1C` [Compound 1], the “solubility in water (in words)” value ([6]; water) is reported as “poorly soluble in water”.
In the case of `COC1=CC(c2cc3ccccc3n2C(=O)CC(C)(C)c2c(C)cccc2OP(=O)(O)O)=N/C1=C/c1[nH]c(C)cc1C` [Compound 66], the “conversion of pro-drug into Compound 1” value [7] is reported as “convert a fraction of the pro-drug Compound 66 present in solution into the drug Compound 1 within two hours”, the “conversion of pro-drug into Compound 1” value [8] is reported as “convert a fraction of the pro-drug Compound 66 present in solution into the drug Compound 1 within two hours” and the “growth of prostatic tumors” value [2] is reported as “significantly reduce the growth of prostatic tumors in mice”.
With `N.N.[Cl][Pt][Cl]` [cisplatin] the “deaths in the group” value ([5]; days 29 and 32, 4 mg/kg IP, group of ten mice) was “Two mice died”, the “body weight lost by the mouse that died” value ([5]; mouse that died on day 29, 4 mg/kg IP) was 2.2 g and the “body weight lost by the mouse that died” value ([5]; mouse that died on day 32, 4 mg/kg IP) was 7 g.
